According to patent publication US8883124B2, “Use of fullerenes in photoacoustic imaging” (University of Florida Research Foundation, Inc., priority 2007, dated 2014):

Columns and labels:
mouse tumor = experiment: In vivo PAT of mouse tumor after intratumoral injection
Protocol: In vivo experiments were carried with mouse tumor model. Six to eight week old BALB/c nude mice (CAnN.Cg-Foxn1nu/Crl) were purchased from Charles River and acclimated for 7 to 10 days. Supplemental estrogen (2 μg of 17β-estradiol valerate/week) was placed subcutaneously at least 1 week prior to tumor implantation. Mice were subcutaneously inoculated with 2×10^7 BT474 cells on the abdominal wall. Experiments were conducted 7-10 days following implantation, after the tumors had reached approximately 10 mm in size.
A volume of 30 μL of nanoparticle suspension (10 mg/mL for PHF and 0.45 mg/mL for CP-0.25) was injected into the mouse tumor. The mouse was placed in the water tank on an inclined plane with its head above the water surface. The PAT instrumentation for in vivo experiments was similar to that described for in vitro experiments, except that acoustic signals were collected over 300° range, giving a total of 100 measurements for each trial. PAT images of mouse tumor were obtained before and after injecting nanoparticles.

Water solubility = type: physicochemical

Polyhydroxy fullerenes [PHF]
PAT signal in the region of the tumor after injection (mouse tumor; mouse tumor (BT474, BALB/c nude mice), intratumoral injection of 30 μL of 10 mg/mL, before vs after): large increase in PAT signal | contrast with the tumor and surrounding non-tumoral tissue in vivo using PAT (mouse tumor; mouse tumor, 30 μL intratumoral, 10 mg/mL for PHF and 0.45 mg/mL for CP-0.25): excellent contrast | water solubility (Water solubility): water-soluble
